In the supplement of paper PMC11061612:

Experiments:
[1] = compound: CC(C)n1c(=O)n(C)c2cnc3cc(F)c(-c4ccc(OCCCN5CCCCC5)nc4)cc3c21 [AZD1390]; details: max 0.3 µM
In short: (§1)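 In 1536-well plates, cancer cell lines in 7.5 μl DMEM/F12 or RPMI with 10% FBS spent 24 hours at 37°C and 5% CO2 and were then dosed for 72 hours with final DMSO typically 0.2%. Viability was read by CellTiter-Glo 2.0 luminescence and scaled between blank-well and DMSO-well means. The single-agent IC50 was fitted from dose responses using a logistic curve in a non-linear mixed effects model, and that logistic curve had two parameters.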

[2] = compound: CC(=O)c1c(C)c2cnc(Nc3ccc(N4CCNCC4)cn3)nc2n(C2CCCC2)c1=O [Palbociclib]; details: max 10 µM
In short: as §1

[3] = compound: Cn1cnc2c(F)c(Nc3ccc(Br)cc3Cl)c(C(=O)NOCCO)cc21 [Selumetinib]; details: max 10 µM
In short: as §1

[4] = compound: COc1cc2ncnc(Nc3ccc(F)c(Cl)c3)c2cc1OCCCN1CCOCC1 [Gefitinib]; details: max 10 µM
In short: as §1

[5] = compound: CC1(C)CCC(CN2CCN(c3ccc(C(=O)NS(=O)(=O)c4ccc(NCC5CCOCC5)c([N+](=O)[O-])c4)c(Oc4cnc5[nH]ccc5c4)c3)CC2)=C(c2ccc(Cl)cc2)C1 [Venetoclax]; details: max 1 µM
In short: as §1

[6] = compound: COc1cc([C@@H]2c3cc4c(cc3[C@@H](O[C@@H]3O[C@@H]5CO[C@@H](C)O[C@H]5[C@H](O)[C@H]3O)[C@H]3COC(=O)[C@H]23)OCO4)cc(OC)c1O [Etoposide]; details: max 10 µM
In short: as §1

[7] = compound: C[C@@H](c1ccc2nccn2c1)n1nnc2ncc(-c3cnn(C)c3)nc21 [Savolitinib]; details: max 1 µM
In short: as §1

[8] = compound: CN(C)CCCOc1ccc(-c2ccc3ncc4c(c3c2)n(C2CCOCC2)c(=O)n4C)cn1 [AZD0156]; details: max 3 µM
In short: as §1

[9] = compound: CS(=O)(=O)CCNCc1ccc(-c2ccc3ncnc(Nc4ccc(OCc5cccc(F)c5)c(Cl)c4)c3c2)o1 [Lapatinib]; details: max 10 µM
In short: as §1

[10] = compound: C=CCn1c(=O)c2cnc(Nc3ccc(N4CCN(C)CC4)cc3)nc2n1-c1cccc(C(C)(C)O)n1 [AZD1775]; details: max 3 µM
In short: as §1

[11] = compound: Cc1cc2ncnn2cc1Nc1ncc2c(n1)n(C1CCOCC1)c(=O)n2C [AZD7648]; details: max 10 µM
In short: as §1

[12] = compound: COc1cc(Nc2ncc3c(n2)-c2ccc(Cl)cc2C(c2c(F)cccc2OC)=NC3)ccc1C(=O)O [Alisertib]; details: max 10 µM
In short: as §1

[13] = compound: Cc1nc(-c2cn3c(n2)-c2ccc(-c4cnn(C(C)(C)C(N)=O)c4)cc2OCC3)n(C(C)C)n1 [Taselisib]; details: max 10 µM
In short: as §1

[14] = compound: COc1nnc2ccc(N3CCC(c4ccc(OCCN5CCN(C)C(=O)[C@H]5C)cc4)CC3)nn12 [AZD5153]; details: max 1 µM
In short: as §1

[15] = compound: C1CN(CCC1(C(=O)N[C@@H](CCO)C2=CC=C(C=C2)Cl)N)C3=NC=NC4=C3C=CN4 [AZD5363]; details: max 10 µM
In short: as §1

[16] = compound: O=C(c1cc(Cc2n[nH]c(=O)c3ccccc23)ccc1F)N1CCN(C(=O)C2CC2)CC1 [Olaparib]; details: max 10 µM
In short: as §1

[17] = compound: C[C@@H]1COCCN1C2=NC(=NC(=C2)C3(CC3)[S@](=N)(=O)C)C4=C5C=CNC5=NC=C4 [AZD6738]; details: max 10 µM
In short: as §1

[18] = compound: CC1=C(C(=CC=C1)Cl)NC(=O)C2=CN=C(S2)NC3=CC(=NC(=N3)C)N4CCN(CC4)CCO [Dasatinib]; details: max 2 µM
In short: as §1

[19] = compound: CC(=O)Nc1cccc(-n2c(=O)n(C3CC3)c(=O)c3c(Nc4ccc(I)cc4F)n(C)c(=O)c(C)c32)c1 [Trametinib]; details: max 1 µM
In short: as §1

[20] = compound: Cc1c2c(nn1C)CSCc1cc(n(C)n1)CSc1cc(c3ccccc3c1)OCCCc1c(C(=O)O)n(C)c3c-2c(Cl)ccc13 [AZD5991]; details: max 1 µM
In short: as §1

[21] = compound: CN(CC[C@H](CSC1=CC=CC=C1)NC2=C(C=C(C=C2)S(=O)(=O)NC(=O)C3=CC=C(C=C3)N4CCC(CC4)[C@H](C5=CC=CC=C5C6=CC=C(C=C6)Cl)O)S(=O)(=O)C(F)(F)F)CCO [AZD4320]; details: max 1 µM
In short: as §1

[22] = compound: N#Cc1cnc(Nc2cc(NC[C@H]3CNCCO3)c(C(F)(F)F)cn2)cn1 [SRA737]; details: max 10 µM
In short: as §1

[23] = compound: CCc1c2c(nc3ccc(O)cc13)-c1cc3c(c(=O)n1C2)COC(=O)[C@]3(O)CC [SN-38]; details: max 0.3 µM
In short: as §1

[24] = compound: C[C@@H](Nc1cc(F)cc(F)c1)c1cc(C(=O)N(C)C)cc2c(=O)cc(N3CCOCC3)oc12 [AZD8186]; details: max 10 µM
In short: as §1

[25] = compound: O=C(Nc1ccc2[nH]nc(-c3ccncc3)c2c1)[C@@H]1CCN(CC(=O)N2CCN(c3ccc(-c4ncccn4)cc3)CC2)C1; details: max 5 µM
In short: as §1

[26] = compound: CC(=O)O[C@H]1C(=O)[C@@]2(C)[C@H]([C@H](OC(=O)c3ccccc3)[C@]3(O)C[C@H](OC(=O)[C@H](O)[C@@H](NC(=O)c4ccccc4)c4ccccc4)C(C)=C1C3(C)C)[C@]1(OC(C)=O)CO[C@@H]1C[C@@H]2O [Paclitaxel]; details: max 3 µM
In short: as §1

[27] = compound: O=c1[nH]cc(F)c(=O)[nH]1 [5-Fluorouracil]; details: max 20 µM
In short: as §1

[28] = compound: C[C@@H](Oc1cc(-c2cnn(C3CCNCC3)c2)cnc1N)c1c(Cl)ccc(F)c1Cl [Crizotinib]; details: max 10 µM
In short: as §1

[29] = compound: NC1(c2ccc(-c3nc4ccn5c(=O)[nH]nc5c4cc3-c3ccccc3)cc2)CCC1 [MK-2206]; details: max 10 µM
In short: as §1

[30] = compound: Nc1ccn([C@@H]2O[C@H](CO)[C@@H](O)C2(F)F)c(=O)n1 [Gemcitabine]; details: max 0.3 µM
In short: as §1

[31] = compound: COc1cccc(OCCCN)c1-c1cc(Nc2cnc(C#N)cn2)n[nH]1 [Prexasertib]; details: max 1 µM
In short: as §1

[32] = compound: C1CC(C1)(C(=O)[O-])C(=O)[O-].N.N.[Pt+2] [Carboplatin]; details: max 10 µM
In short: as §1

[33] = compound: CC1=CN2[C@@H](C1)C=NC3=CC(=C(C=C3C2=O)OC)OCCCCCOC4=C(C=C5C(=C4)N=C[C@@H]6CC(=CN6C5=O)C)OC [SG3199]; details: max 0.001 µM
In short: as §1

[34] = compound: CCN(CCO)CCCOc1ccc2c(Nc3cc(CC(=O)Nc4cccc(F)c4)[nH]n3)ncnc2c1 [AZD2811]; details: max 1 µM
In short: as §1

[35] = compound: COc1cccc2c1C(=O)c1c(O)c3c(c(O)c1C2=O)C[C@@](O)(C(=O)CO)C[C@@H]3O[C@H]1C[C@H](N)[C@H](O)[C@H](C)O1 [Doxorubicin]; details: max 1 µM
In short: as §1

Cell Line	IC50, cell viability 72 h [1] [nM]	IC50, cell viability 72 h [2] [µM]	IC50, cell viability 72 h [3] [µM]	IC50, cell viability 72 h [4] [µM]	IC50, cell viability 72 h [5] [nM]	IC50, cell viability 72 h [6] [µM]	IC50, cell viability 72 h [7] [nM]	IC50, cell viability 72 h [8] [nM]	IC50, cell viability 72 h [9] [µM]	IC50, cell viability 72 h [10] [nM]	IC50, cell viability 72 h [11] [µM]	IC50, cell viability 72 h [12] [nM]	IC50, cell viability 72 h [13] [µM]	IC50, cell viability 72 h [14] [nM]	IC50, cell viability 72 h [15] [µM]	IC50, cell viability 72 h [16] [µM]	IC50, cell viability 72 h [17] [µM]	IC50, cell viability 72 h [18] [nM]	IC50, cell viability 72 h [19] [nM]	IC50, cell viability 72 h [20] [nM]	IC50, cell viability 72 h [21] [nM]	IC50, cell viability 72 h [22] [µM]	IC50, cell viability 72 h [23] [nM]	IC50, cell viability 72 h [24] [µM]	IC50, cell viability 72 h [25] [µM]	IC50, cell viability 72 h [26] [nM]	IC50, cell viability 72 h [27] [µM]	IC50, cell viability 72 h [28] [µM]	IC50, cell viability 72 h [29] [µM]	IC50, cell viability 72 h [30] [nM]	IC50, cell viability 72 h [31] [nM]	IC50, cell viability 72 h [32] [µM]	IC50, cell viability 72 h [33] [nM]	IC50, cell viability 72 h [34] [nM]	IC50, cell viability 72 h [35] [nM]
CAL-148 (Breast Carcinoma)	> 300	> 10	> 10	> 10	> 1000	0.59	> 1000	> 3000	> 10	206	> 10	1330	0.241	803	0.274	> 10	3.82	> 2000	> 1000	> 1000	> 1000	> 10	2.5	> 10	> 5	45.2	> 20	> 10	1.38	29.9	234	> 10	> 1	26.2	54.9
CCRF-CEM (T-Lymphoblastic Leukemia)	> 300	1.95	> 10	> 10	> 1000	0.202	> 1000	> 3000	> 10	134	> 10	73.7	7.25	523	7.97	> 10	0.992	> 2000	> 1000	> 1000	55.2	0.77	1.91	> 10	> 5	4.87	> 20	1.55	3.98	32.6	3.26	> 10	> 1	6.51	62.6
CaR-1 (Colorectal Carcinoma)	> 300	> 10	> 10	> 10	> 1000	> 10	> 1000	> 3000	> 10	> 3000	> 10	> 10000	6.55	> 1000	> 10	> 10	> 10	> 2000	> 1000	> 1000	> 1000	> 10	28.2	> 10	> 5	171	> 20	> 10	> 10	228	279	> 10	> 1	> 1000	957
Calu-3 (Lung Adenocarcinoma)	> 300	> 10	> 10	3.73	> 1000	5.55	> 1000	> 3000	1.78	2890	> 10	> 10000	2.79	337	> 10	> 10	> 10	> 2000	> 1000	> 1000	> 1000	> 10	> 300	> 10	> 5	> 3000	> 20	> 10	> 10	> 300	> 1000	> 10	> 1	> 1000	> 1000
DoTc2-4510 (Cervical Carcinoma)	> 300	> 10	> 10	> 10	> 1000	> 10	> 1000	> 3000	> 10	2900	> 10	> 10000	4.86	> 1000	> 10	> 10	> 10	> 2000	> 1000	> 1000	> 1000	> 10	9.33	> 10	> 5	456	> 20	> 10	> 10	> 300	59.5	> 10	> 1	> 1000	518
